These are literature values, as cited in US20080268043A1, “Controlled Release Compositions Comprising an Antipsychotic Agent” (ELAN PHARMA INTERNATIONAL LIMITED, priority 2005, published 2008).

For this data set the following is noted: within the proposed clinical dose range.

On to `OCCOCCN1CCN(C2=Nc3ccccc3Sc3ccccc32)CC1` [quetiapine], for which the mean terminal half-life entry is listed as “about 6 hours”.
